According to patent publication US20120083518A1, “Cancer Treatment Targeting BRCA1-IRIS” (priority 2010, published 2012):

Assays:
Assay type in all cases: cell-based, human
HME cells = assay: TUNEL detection (FragEL DNA fragmentation kit)
Protocol: (§1) HME and induced IRIS3 (72 h) cells were exposed to 40 mJ/cm^2 UVC, 10 μM of etoposide or 15 μM of H2O2 in the presence or absence of 10 μM of SB203580, p53 siRNA or 10 μM of CCT007093.
(§2) The Flurescein FragEL DNA Fragmentation Detection Kit was used according to the supplier (Calbiochem) protocol.

induced IRIS3 cells = assay: TUNEL detection (FragEL DNA fragmentation kit)
Protocol: as §1, §2

MCF7 cells = assay: LIVE/DEAD cell death assay; settings: for level of cell death: MCF7, all conditions, 10 μM etoposide or 15 μM H2O2
Protocol: (§3) MCF7 and SKBR3 cell lines transfected with luciferase or BRCA1-IRIS siRNAs in the presence or absence of p38MAPK inhibitor (SB203580) or p53 siRNA were exposed to 40 mJ/cm^2 UVC, 10 μM etoposide or 15 μM H2O2. […] This was confirmed by phase-contrast cell counting (FIG. 9I) and trypan blue exclusion using ViCell (Beckman Coulter, Fullerton, Calif., USA, FIG. 9J).
(§4) The LIVE/DEAD Fixable Dead Cell Stain Kit was used according to the supplier (Invitrogen) protocol.

SKBR3 cells = assay: LIVE/DEAD cell death assay; settings: for level of cell death: SKBR3, all conditions, 10 μM etoposide or 15 μM H2O2
Protocol: as §3, §4

[1] = test system: p53 phosphorylation in induced IRIS3 cells; assay: Immunoblot of p53 phosphorylation (p-p53/p53, ImageJ)
Protocol: (§5) IRIS 1 and IRIS3 induced for 72 h were exposed to 0, 10, 20 or 40 mJ/cm^2 of UVC irradiation. After 24 h, compared with IRIS1, induced IRIS3 cells treated with 0 mJ/cm^2 UVC had higher levels of BRCA1-IRIS, p53, WIP1, p-p38MAPK, yet similar levels of p38MAPK and p-p53 (FIG. 9F). In 10 and 20 mJ/cm^2 treated cells, BRCA1-IRIS, p53 and WIP1 levels remained higher in induced IRIS3 and no change in p38MAPK level (FIG. 9F). […] Finally, in 40 mJ/cm^2 UVC-treated cells, BRCA1-IRIS, p53 and WIP1 levels were still detectable in induced IRIS3 but not in IRIS1 cells (FIG. 9F). In contrast, IRIS1 and not induced IRIS3 cells contained detectable levels of p-p53 and p-p38MAPK (FIG. 9F). The intensity of the p53, p-p53, p38MAPK and p-p38MAPK bands in FIG. 9F were measured using ImageJ program (NIH) to estimate the level of p53 and p38MAPK activation in BRCA1-IRIS overexpressing cells. About 50% of p53 in IRIS1 cells was phosphorylated before UVC exposure that rose to 80-100% after the exposure (FIG. 9G). In contrast, only 20% of p53 was phosphorylated in induced IRIS3 cells before UVC dropping to <10% after UVC (FIG. 9G). p38MAPK phosphorylation was undetectable in IRIS1 cells before UVC exposure but rose to ˜100% after UVC (FIG. 9G). In induced IRIS3 cells, the 100% of p38MAPK phosphorylated before UVC exposure dropped to <20% after UVC exposure (FIG. 9G). […]

[2] = test system: p38MAPK phosphorylation in induced IRIS3 cells; assay: Immunoblot of p38MAPK phosphorylation (p-p38MAPK/p38MAPK, ImageJ)
Protocol: as §5

[3] = test system: p53 phosphorylation in HME cells; assay: Immunoblot of p53 phosphorylation; settings: 10 μM CCT007093 alone
Protocol: (§6) CCT007093 is a novel WIP1 specific inhibitor. The HME and induced IRIS3 (72 h) cells were untreated or exposed to 20 mJ/cm^2 UVC, 10 μM of CCT007093 or both. BRCA1-IRIS, p53 and WIP1 level was low in HME and high in IRIS3 cells, whereas p38MAPK was high in both the cell lines. These levels were not changed in both cell lines following any of the treatments (FIG. 9H). p-p53 level was low in untreated HME and IRIS3 cells (FIG. 9H, lanes 1 and 5), rose after UVC treatment, decreased after CCT007093 treatment and increased in UVC+CCT007093-treated HME cells (FIG. 9H) Importantly, in induced IRIS3 cells, p-p53 level decreased after UVC treatment, increased after CCT007093 treatment and remained high after the combined treatment (FIG. 9H).
(§7) BT474, MCF7 and SKBR3 cells were maintained in Roswell Park Memorial Institute medium (Invitrogen) supplemented with 10% fetal bovine serum and antibiotics. SOAS2 and HEK293T cells were maintained Dulbecco's Modified Eagle medium (Invitrogen) with 10% serum. HME maintenance was as described in ElShamy and Livingston, 2004. Cancer or HME cells were at 80% confluence in 10 cm^2 dishes and were treated with UVC (different doses), SB203580 (10 μM, Sigma, St. Louis, Mo., USA), etoposide (10 μM, Sigma) and H2O2 (15 μM, Sigma) or CCT007093 (10 μM, Santa Cruz, Santa Cruz, Calif., USA), and these drugs were added directly to the cells.

[4] = test system: p38MAPK phosphorylation in HME cells; assay: Immunoblot of p38MAPK phosphorylation; settings: 10 μM CCT007093
Protocol: as §6, §7

[5] = test system: p53 and p38MAPK phosphorylation in IRIS1 cells; assay: Immunoblot of p-p53 and p-p38MAPK after etoposide
Protocol: (§8) Induced IRIS2 on the other hand maintained high level of BRCA1-IRIS, p53 and WIP1 even in the presence of 50 μM of etoposide and had similar level of total p38MAPK (FIG. 8I). Etoposide treatment triggered p53 phosphorylation in IRIS1 but not in the induced IRIS2 cells (Supplementary FIG. 8I).

[6] = test system: p53 and p38MAPK phosphorylation in induced IRIS2 cells; assay: Immunoblot of p-p53 and p-p38MAPK after etoposide
Protocol: as §8

HOSE/AKT1 cells = assay: MTT cell viability after cisplatin; settings: HOSE/AKT1, cisplatin 48 h
Description: (§9) MTT and activated caspases 3 and 7 assays. Done using the Cell Titer 96® AQueous One Solution Cell Proliferation Assay (#G3580, Promega) Caspase-Glo 3/7 Assay (#G8091, Promega), respectively as per manufacturer's instructions. Measurements were obtained using optical at 490 nm. Each experiment was done in 8 samples and the whole experiment was repeated 3 separate times.

HOSE/AKT2 cells = assay: MTT cell viability after cisplatin; settings: HOSE/AKT2, cisplatin 48 h
Description: as §9

HOSE/AKT3 cells = assay: MTT cell viability after cisplatin; settings: HOSE/AKT3, cisplatin 48 h
Description: as §9

HOSE/IRIS cells = assay: MTT cell viability after cisplatin; settings: cisplatin 48 h
Description: as §9

HOSE/survivin cells = assay: MTT cell viability after cisplatin; settings: cisplatin 48 h
Description: as §9

HOSE/vector cells = assay: MTT cell viability after cisplatin; settings: cisplatin 48 h
Description: as §9

IGROV-1 cells = assay: MTT cell viability after cisplatin; settings: IGROV-1, cisplatin 48 h
Protocol: as §9, with “times. […] As expected, low viability and high level of active caspase3/7 were detected in IGROV-1 (FIG. 5C), showing an IC50 of ˜5 μM.” for “times.”

MCAS cells = assay: MTT cell viability after cisplatin; settings: cisplatin 48 h
Protocol: as §9, with “times. […] As expected, low viability and high level of active caspase3/7 were detected in IGROV-1 (FIG. 5C), showing an IC50 of ˜5 μM.” for “times.”

OVCAR-5 cells = assay: MTT cell viability after cisplatin; settings: OVCAR-5, cisplatin 48 h
Protocol: as §9, with “times. […] As expected, low viability and high level of active caspase3/7 were detected in IGROV-1 (FIG. 5C), showing an IC50 of ˜5 μM.” for “times.”

SK-OV-3 cells = assay: MTT cell viability after cisplatin; settings: SK-OV-3, cisplatin 48 h
Protocol: as §9, with “times. […] As expected, low viability and high level of active caspase3/7 were detected in IGROV-1 (FIG. 5C), showing an IC50 of ˜5 μM.” for “times.”

[7] = test system: AKT and survivin expression in MCAS cells; assay: Immunoblot of AKT, p-AKT and survivin; settings: cisplatin 35 μM 24 h alone
Protocol: (§10) Immunoblotting. […] Bcl-2 (clone 124; Dako Diagnostics AG), Bcl-xL (Transduction Laboratories), actin (Ab-1, CP01, Oncogene) and phospho-Survivin (T34, Novus Biologicals). Mouse antibody against BRCA1-IRIS was generated in our laboratory.
(§11) BRCA1-IRIS overexpression-induced survivin expression is partially PI3′K/AKT-independent. To study this further, MCAS or SK-OV-3 cells were exposed to the PI3′K inhibitor, LY294002 for 24 h or were transfected with BRCA1-IRIS siRNA for 48 h before they were exposed to LY294002 and left for another 24 h. […] Indeed, LY294002 decreased survivin expression in HOSE/vector cells but had little effect in HOSE/IRIS cells (FIG. 3B).
(§12) BRCA1-IRIS downregulation sensitizes ovarian cancer cell lines to cisplatin-induced survivin downregulation and cell death.

[8] = test system: BRCA1-IRIS, AKT and survivin expression in SK-OV-3 cells; assay: Immunoblot of BRCA1-IRIS, AKT, p-AKT and survivin; settings: SK-OV-3, cisplatin 35 μM 24 h alone
Protocol: as §10
BRCA1-IRIS-induced survivin expression is partially AKT-dependent. AKT (siRNA silences AKT1 and AKT2), BRCA1-IRIS, survivin or AKT and BRCA1-IRIS were silenced in SK-OV-3 cells (endogenously overexpressing all proteins, see FIG. 1B) for 72 h. […] Survivin silencing had no effect on BRCA1-IRIS or AKTs the expression (FIG. 2G). Identical results were obtained using MCAS cell line.
as §11, §12

[9] = test system: BRCA1-IRIS, AKT and survivin expression in HOSE cells; assay: Immunoblot of BRCA1-IRIS, AKT and survivin after cisplatin; settings: 24 h
Description: as §10
Ovarian cancer cells expressing high level of survivin usually are cisplatin-resistant.

[10] = test system: AKT1, AKT2 and survivin expression in OVCAR-5 cells; assay: Immunoblot of AKT1, AKT2 and survivin; settings: OVCAR-5, cisplatin 35 μM 24 h alone
Description: as §10, §12

[11] = HME, 10 μM etoposide or 15 μM H2O2
[12] = induced IRIS3, 10 μM etoposide or 15 μM H2O2
[13] = induced IRIS3, 20 mJ/cm^2 UVC in presence of 10 μM CCT007093

## OO [H2O2]
HME cells; [11]
  number of TUNEL+ cells: markedly increased
Induced IRIS3 cells; [12]
  number of TUNEL+ cells: only modestly increasing
MCF7 cells
  level of cell death: increased
SKBR3 cells
  level of cell death: increased

## O=C1/C(=C/c2cccs2)CC/C1=C\c1cccs1 [CCT007093]
[1]; induced IRIS3, 10 μM CCT007093 alone
  p-p53 level: increased
[1]; [13]
  p53 phosphorylated (p-p53/p53 ratio): ~75%
[2]; induced IRIS3, 10 μM CCT007093 alone or with UVC
  p-p38MAPK level: remained high
[2]; [13]
  p38MAPK phosphorylated (p-p38MAPK/p38MAPK ratio): ~55%
[3]
  p-p53 level: decreased
[4]
  p-p38MAPK level: increased
HME cells; HME under UVC, etoposide or H2O2, 10 μM CCT007093 vs vehicle
  number of TUNEL+ cells: not
HME cells; HME, 10 μM CCT007093, no stress treatment
  number of TUNEL+ cells: increased slightly yet significantly
Induced IRIS3 cells; induced IRIS3, 10 μM CCT007093, no stress treatment
  number of TUNEL+ cells: not
Induced IRIS3 cells; induced IRIS3 under UVC, etoposide or H2O2, 10 μM CCT007093 vs vehicle
  number of TUNEL+ cells: significantly increased

## C[S+]([O-])c1ccc(-c2nc(-c3ccncc3)c(-c3ccc(F)cc3)[nH]2)cc1 (centres unmarked) [SB203580]
HME cells; HME under UVC, etoposide or H2O2, plus 10 μM SB203580 or p53 siRNA
  number of TUNEL+ cells: significantly reduced
Induced IRIS3 cells; induced IRIS3 under UVC, etoposide or H2O2, plus 10 μM SB203580 or p53 siRNA
  number of TUNEL+ cells: stayed the same
MCF7 cells; MCF7, BRCA1-IRIS silenced plus SB203580 or p53 siRNA
  dead cells induced by BRCA1-IRIS silencing: significantly reduced
SKBR3 cells; SKBR3, BRCA1-IRIS silenced plus SB203580 or p53 siRNA
  dead cells induced by BRCA1-IRIS silencing: significantly reduced

## COc1cc([C@@H]2c3cc4c(cc3[C@@H](O[C@@H]3O[C@@H]5CO[C@@H](C)O[C@H]5[C@H](O)[C@H]3O)[C@H]3COC(=O)[C@H]23)OCO4)cc(OC)c1O [etoposide]
HME cells; [11]
  number of TUNEL+ cells: markedly increased
Induced IRIS3 cells; [12]
  number of TUNEL+ cells: only modestly increasing
MCF7 cells
  level of cell death: increased
SKBR3 cells
  level of cell death: increased
[5]; IRIS1, after etoposide treatment
  p-p38MAPK level: increased significantly
[5]; IRIS1, etoposide 5, 10 or 50 μM, 24 h
  p53 phosphorylation: triggered
[6]; induced IRIS2, after etoposide treatment
  p-p38MAPK level: sharply dropped
[6]; induced IRIS2, etoposide 5, 10 or 50 μM, 24 h
  p53 phosphorylation: not

## N.N.[Cl][Pt][Cl] [cisplatin]
HOSE/AKT1 cells
  IC50: ~75 µM
HOSE/AKT2 cells
  IC50: ~75 µM
HOSE/AKT3 cells
  IC50: 15 to 20 µM
HOSE/IRIS cells
  IC50: ~75 µM
HOSE/survivin cells
  IC50: ~75 µM
HOSE/vector cells
  IC50: 15 to 20 µM
IGROV-1 cells
  IC50: ~5 µM
MCAS cells
  IC50: ~40 µM
OVCAR-5 cells
  IC50: ~25 µM
SK-OV-3 cells
  IC50: ~40 µM
[7]
  expression of AKT1, AKT2 and survivin: modestly decreased
[8]
  expression of AKT1, AKT2 and survivin: modestly decreased
[9]; high concentrations cisplatin (>50 μM)
  BRCA1-IRIS, AKT and survivin expression: abolished
[9]; low concentrations cisplatin (≦50 μM)
  BRCA1-IRIS, AKT and survivin expression: triggered
[10]
  expression of AKT1, AKT2 and survivin: modestly decreased
